Earlier results on one compound are cited in patent publication US20090270472A1, “METHOD TO USE OXYMETAZOLINE TO INTERRUPT THE DEVELOPMENT OF THE COMMON COLD SYNDROME” (priority 2008, published 2009).

The structures appear in SMILES notation.

For the series the following is noted: subjects with acute rhinitis; six (6) days with saline placebo.

On to `Cc1cc(C(C)(C)C)c(O)c(C)c1CC1=NCCN1` [oxymetazoline], for which the duration of rhinitis is 4 days.
